Measured values reported in the supplement of paper PMC10307832.

Legend:
Assay in all cases: relative viability (nuclei count vs DMSO), 5 days (fraction); higher = more cells survive
Tozasertib + Lapatinib = compound: Cc1cc(Nc2cc(N3CCN(C)CC3)nc(Sc3ccc(NC(=O)C4CC4)cc3)n2)n[nH]1 [Tozasertib] + CS(=O)(=O)CCNCc1ccc(-c2ccc3ncnc(Nc4ccc(OCc5cccc(F)c5)c(Cl)c4)c3c2)o1 [Lapatinib] (partner 2 µM)
Method in brief: (§1)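 After 5 days of treatment, lung cancer cells in 1536-well plates were fixed and stained in a single step (final 0.05% Triton X-100, 1% formaldehyde, 1 ug/ml Hoechst) and their nuclei counted on 4× images. Treatment had been applied by pin tool the day after seeding as one drug alone or as a fixed anchor-drug dose with five library-drug doses (not always all listed) in √10 steps. Relative viability is the nuclei count of treated wells divided by that of vehicle wells, and values are medians of duplicate plates.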

Tozasertib + Alpelisib = compound: Cc1cc(Nc2cc(N3CCN(C)CC3)nc(Sc3ccc(NC(=O)C4CC4)cc3)n2)n[nH]1 [Tozasertib] + Cc1nc(NC(=O)N2CCC[C@H]2C(N)=O)sc1-c1ccnc(C(C)(C)C(F)(F)F)c1 [Alpelisib] (partner 2 µM)
Method in brief: as §1

Tozasertib + AZD7762 = compound: Cc1cc(Nc2cc(N3CCN(C)CC3)nc(Sc3ccc(NC(=O)C4CC4)cc3)n2)n[nH]1 [Tozasertib] + NC(=O)Nc1cc(-c2cccc(F)c2)sc1C(=O)N[C@H]1CCCNC1 [AZD7762] (partner 0.2 µM)
Method in brief: as §1

Tozasertib + Pictilisib = compound: Cc1cc(Nc2cc(N3CCN(C)CC3)nc(Sc3ccc(NC(=O)C4CC4)cc3)n2)n[nH]1 [Tozasertib] + CS(=O)(=O)N1CCN(Cc2cc3nc(-c4cccc5[nH]ncc45)nc(N4CCOCC4)c3s2)CC1 [Pictilisib] (partner 1 µM)
Method in brief: as §1

Row | Cell Line | relative viability (Tozasertib + Lapatinib; first compound 0.004 µM) | relative viability (Tozasertib + Lapatinib; first compound 0.01265 µM) | relative viability (Tozasertib + Lapatinib; first compound 0.04 µM) | relative viability (Tozasertib + Lapatinib; first compound 0.1265 µM) | relative viability (Tozasertib + Alpelisib; first compound 0.004 µM) | relative viability (Tozasertib + Alpelisib; first compound 0.01265 µM) | relative viability (Tozasertib + Alpelisib; first compound 0.04 µM) | relative viability (Tozasertib + Alpelisib; first compound 0.1265 µM) | relative viability (Tozasertib + AZD7762; first compound 0.004 µM) | relative viability (Tozasertib + AZD7762; first compound 0.01265 µM) | relative viability (Tozasertib + AZD7762; first compound 0.04 µM) | relative viability (Tozasertib + AZD7762; first compound 0.1265 µM) | relative viability (Tozasertib + Pictilisib; first compound 0.004 µM) | relative viability (Tozasertib + Pictilisib; first compound 0.01265 µM) | relative viability (Tozasertib + Pictilisib; first compound 0.04 µM) | relative viability (Tozasertib + Pictilisib; first compound 0.1265 µM)
1 | NCI-H1792 | 0.913 | 0.742 | 0.943 | 0.737 | 0.613 | 0.596 | 0.817 | 0.618 | 0.902 | 0.588 | 0.904 | 0.69 | 0.297 | 0.203 | 0.241 | 0.167
2 | NCI-H1793 | 0.699 | 0.598 | 0.573 | 0.364 | 0.578 | 0.699 | 0.872 |  | 0.405 | 0.425 | 0.59 | 0.486 | 0.396 | 0.357 | 0.351 | 0.261
3 | NCI-H1944 | 0.869 | 0.728 | 0.772 | 0.339 | 0.785 | 0.75 | 0.891 | 0.495 | 0.403 | 0.479 | 0.443 | 0.327 | 0.36 | 0.339 | 0.331 | 0.275
4 | NCI-H838 | 1.12 | 0.947 | 1.16 | 0.208 | 1.15 | 0.942 | 1.12 | 1.03 | 0.881 | 0.971 | 0.925 |  | 0.453 | 0.425 | 0.427 | 0.202
5 | LCLC-97TM1 |  | 0.884 | 1.04 | 0.592 |  | 0.247 | 0.32 | 0.207 | 0.166 | 0.194 | 0.164 | 0.211 |  | 0.181 | 0.222 | 0.11
6 | EMC-BAC-2 | 0.851 |  | 0.908 | 0.567 | 0.771 |  | 0.724 | 0.428 | 1.15 | 1.12 | 0.93 | 0.47 | 0.547 | 0.541 | 0.654 | 0.395
7 | HOP-62 | 1.06 | 0.999 | 0.856 | 0.943 | 1.05 | 0.887 | 0.937 | 0.937 | 0.505 | 0.485 | 0.613 | 0.289 | 0.741 | 0.605 | 0.926 | 0.565
8 | LK-2 | 1.01 | 0.869 | 1.01 | 0.219 | 1.33 |  | 1.12 | 0.306 | 0.466 | 0.54 | 0.624 | 0.138 | 0.715 |  | 0.61 | 0.359
9 | NCI-H322M | 0.594 | 0.538 | 0.614 | 0.519 | 0.732 | 0.749 | 0.904 | 0.848 | 0.497 | 0.507 | 0.572 | 0.48 | 0.485 | 0.474 | 0.576 | 0.419
10 | HCC-366 | 1.1 | 0.992 |  | 0.0536 | 0.37 | 0.476 | 0.558 | 0.13 | 0.355 | 0.282 | 0.337 | 0.203 | 0.106 | 0.135 | 0.122 | 0.0817
11 | NCI-H460 | 0.968 | 0.842 | 1.01 | 0.0247 | 0.544 | 0.435 | 0.449 | 0.293 | 0.548 | 0.657 | 0.737 |  | 0.337 | 0.346 | 0.389 | 0.319
12 | HCC-827 | 0.222 | 0.18 | 0.215 | 0.192 | 1.03 | 0.931 | 1.06 | 0.954 | 0.16 | 0.204 | 0.23 | 0.2 | 0.872 | 0.999 | 1.14 | 0.918
13 | HARA |  | 0.695 | 1.02 | 0.246 | 0.955 | 0.795 | 0.994 | 0.305 | 0.353 | 0.247 | 0.209 | 0.123 | 0.421 | 0.44 | 0.373 | 0.243
14 | NCI-H441 |  |  |  |  | 0.69 | 0.69 | 0.758 | 0.541 | 1.61 | 0.989 | 1.17 | 1.08 | 0.431 | 0.447 | 0.477 | 0.304
15 | PC-14 | 0.293 | 0.287 | 0.354 | 0.361 | 0.982 | 0.95 | 0.954 | 0.956 | 0.31 | 0.236 | 0.336 | 0.213 | 0.14 | 0.541 | 0.593 | 0.725
16 | NCI-H358 | 0.54 | 0.376 | 0.439 | 0.206 | 1.08 | 0.863 | 0.83 | 0.182 | 0.393 |  | 0.475 | 0.227 | 0.353 | 0.263 | 0.366 | 0.178
17 | NCI-H520 | 0.868 | 0.816 | 0.775 | 0.214 | 0.945 | 0.844 | 0.889 | 0.864 |  |  |  |  | 0.315 | 0.268 | 0.288 | 0.186
18 | A549 | 1.04 | 0.859 | 0.835 | 0.0927 | 0.686 | 0.826 | 0.759 | 0.211 |  |  |  |  | 0.529 | 0.463 | 0.517 | 0.0954
19 | SK-MES-1 | 0.477 | 0.468 | 0.514 | 0.438 | 0.967 | 0.746 | 0.894 | 0.535 |  |  |  |  | 0.401 | 0.302 | 0.35 | 0.326
20 | NCI-H661 | 0.581 |  | 0.427 | 0.376 | 0.568 | 0.735 | 0.776 | 0.496 |  |  |  |  | 0.461 | 0.394 | 0.404 | 0.349
21 | SW 900 |  |  |  |  |  |  |  |  | 0.485 | 0.72 | 0.622 | 0.467 |  |  |  | 
22 | COR-L23 | 1.02 | 0.863 | 0.721 | 0.247 | 0.827 | 0.763 | 0.585 | 0.699 |  |  |  |  | 0.724 | 0.756 | 0.783 | 0.397
23 | NCI-H2228 | 0.958 |  | 0.765 | 0.336 | 0.806 |  | 0.556 | 0.434 |  |  |  |  | 0.509 |  | 0.326 | 0.355
